The METLIN SMRT retention time set (Domingo-Almenara et al. 2019)

Test: gradient 5% acetonitrile 3 min, to 50% in 2 min, to 85% in 15 min, held 3 min, 100 µL/min
Details: column: Zorbax Extend-C18 2.1 x 50 mm; eluents: water / acetonitrile, 0.1% formic acid
Summary of the method: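 The system's dead and dwell volumes were 40 μL and 900 μL, with a Zorbax Extend-C18 column (2.1 × 50 mm, 1.8 μm) run at 100 μL/min in water and acetonitrile containing 0.1% formic acid each. Pure standards were analyzed in mixtures of ~100 molecules by HPLC–quadrupole time-of-flight mass spectrometry in positive and negative ionization mode. Retention time was assigned from computationally picked, manually inspected adduct peaks.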

| RP-LC retention time | SMILES |
| --- | --- |
| 734 s | CCc1nncn1C1CCN(S(=O)(=O)c2ccc(F)c(Cl)c2)CC1 |
| 701 s | CCOC(=O)c1c(C)oc2nc(C)nc(NCCCN(C)c3ccccc3)c12 |
| 660 s | COc1ccc(N2CCN(Cc3nc4nc(C)cc(N5CCCCC5)n4n3)CC2)cc1 |
| 692 s | Cc1ccc2nc(-c3ccc(N4CCOCC4)cc3)c(Nc3ccc4c(c3)OCCO4)n2c1 |
| 1140 s | O=C(Cc1csc(-c2ccccc2)n1)Nc1nc(-c2ccc(F)cc2)cs1 |
| 752 s | O=C(CCC1CCN(S(=O)(=O)c2ccccc2F)CC1)NC1CC1 |
| 1080 s | CCOCCCNC(=O)C1CCCN(c2nc3ccccc3n(Cc3ccc(C)cc3)c2=O)C1 (stereo unspecified) |
| 575 s | CCc1ccc(CN2CCC3(CC2)CC(O)(COC)CCO3)cc1 (stereo unspecified) |
| 1100 s | CC(O)Cn1cnc2c1c(=O)n(C)c(=O)n2C (stereo unspecified) |
| 747 s | O=C(CN1C(=O)c2cccc3cccc(c23)C1=O)NCc1ccc2c(c1)OCO2 |
| 1110 s | O=C(Cc1ccc(Cl)cc1)NCc1nc(-c2ccc3oc(-c4ccccc4)nc3c2)no1 |
| 759 s | CCOc1ccc(CCNC(=O)C2CCCN(c3nnc(C)c4c(C)n(-c5ccccc5)nc34)C2)cc1 (stereo unspecified) |
| 812 s | Cc1cc(C(=O)Nc2nnc(-c3cc4ccccc4o3)o2)c(C)o1 |
| 928 s | Cc1cc(C)cc(S(=O)(=O)Nc2ccc3c(c2)CCC(=O)N3CC(C)C)c1 |
| 834 s | CC(C(=O)Nc1ccc(F)cc1)C1CCN(C(=O)Nc2ccc(F)cc2)CC1 (stereo unspecified) |
| 842 s | O=C(Cc1ccc(Cl)cc1)N1CCN(S(=O)(=O)c2cc3c4c(c2)CCC(=O)N4CCC3)CC1 |
| 708 s | CCc1ccc(Nc2nc(C(=O)NC)nc3ccccc23)cc1 |
| 627 s | C[C@@H](NC(=O)c1ccc(F)cc1)C(=O)NCc1cscn1 |
| 775 s | O=C(CNS(=O)(=O)c1ccc2c(c1)OCCO2)N1CCOC(c2ccccc2)C1 (stereo unspecified) |
| 698 s | CCNC(=O)C1CCCN(c2nc3ncn(CC(=O)Nc4ccc(F)c(Cl)c4)c(=O)c3s2)C1 (stereo unspecified) |
| 863 s | COC(=O)c1cc(OCC(=O)Nc2ccc3c(c2)OCO3)c2cc(Cl)ccc2n1 |
| 801 s | COC(=O)c1cc2n(n1)CC(C)(C(=O)NC1CCCC1)N(c1ccccc1C)C2=O (stereo unspecified) |

| RP-LC retention time | SMILES |
| --- | --- |
| 708 s | Cc1ccc(CC(=O)Nc2ccc3c(c2)CCC(=O)N3)cc1 |
| 851 s | Cc1cccc(Cn2nc3n(CCC(=O)NC(C)C)c(=O)c4ccccc4n3c2=O)c1 |
| 991 s | O=C(Nc1ncc(Cc2ccccc2Cl)s1)c1cc2ccccc2c(=O)o1 |
| 748 s | Cc1ccc(CNC(=O)C2c3ccccc3CC(=O)N2C)cc1 (stereo unspecified) |
| 1190 s | O=C(Nc1ccc(Cl)cc1F)C1CCN(c2nccnc2Sc2ccccc2)CC1 |
| 940 s | COc1cccc(NC(=O)Cn2cccc2-c2nnc(-c3ccccc3)o2)c1 |
| 957 s | CC(C)c1cccc(NC(=O)C2CC(=O)N(c3cccc(NC(=O)C4CCC4)c3)C2)c1 (stereo unspecified) |
| 824 s | CSc1nnc(Cn2c(=O)sc3ccccc32)n1-c1cccc(C(F)(F)F)c1 |
| 539 s | O=c1c(NCCc2cccnc2)nc2ccncc2n1Cc1ccccc1 |
| 1110 s | CCCCN1CN(c2ccc(C)cc2)c2ncccc2S1(=O)=O |
| 732 s | Nc1cc(C2CCN(S(=O)(=O)c3ccccc3)CC2)no1 |
| 560 s | CN(CC(=O)N1CCOCC1)c1nc(C2CC2)nc2c1CCC2 |
| 638 s | CCCN1CCN(c2cc(C(=O)O)c3cc(NS(=O)(=O)c4ccc(C)cc4)ccc3n2)CC1 |
| 701 s | CCc1nnc(NC(=O)Cc2csc(-n3cccc3)n2)s1 |
| 1010 s | CC1CCN(c2cc3c(cc2NC(=O)C(C)(C)C)n(C)c(=O)c(=O)n3C)CC1 |
| 821 s | Cc1cccc(-c2nnc(SCc3cc(=O)n4ccsc4n3)o2)c1 |
| 779 s | Cn1cc(CCNC(=O)Nc2ccccc2C(F)(F)F)c2cccnc21 |
| 610 s | Cc1ccc(-c2cc(C(=O)NCCCN3CCN(C)CC3)c(C)[nH]2)cc1C |
| 945 s | Cc1cccc(N2CCN(Cc3nc(-c4ccc(N5CCOCC5)nc4)no3)CC2)c1C |
| 1200 s | O=c1c2sccc2n(Cc2nc(-c3ccc(C(F)(F)F)cc3)no2)c(=O)n1Cc1ccccc1 |
| 1010 s | CCC(=O)N1CCc2sc(S(=O)(=O)N3CCN(c4cccc(C)c4)CC3)cc2C1 |
| 644 s | O=S(=O)(c1ccccc1F)N1CCC2(CCN(c3cccnc3)C2)C1 (stereo unspecified) |

| RP-LC retention time | SMILES |
| --- | --- |
| 623 s | CC(C)NC(=O)N1CCCC(c2cccc(C(=O)NCCCN3CCCCC3)c2)C1 (stereo unspecified) |
| 782 s | O=C(NCc1cccc(F)c1)c1cc2n(n1)CCCC2 |
| 598 s | CCOCCCNC(=O)Nc1ccc(CCc2nc3ccccc3[nH]2)cc1 |
| 684 s | Cc1ccc(-n2cc(C(=O)O)nn2)cc1F |
| 930 s | Cc1ccc(CNC(=O)Cn2nc3cc(-c4ccccc4)nc(C)n3c2=O)cc1 |
| 1200 s | CCc1cc(-c2csc(S(=O)(=O)N3CCN(c4cccc(Cl)c4)CC3)c2)on1 |
| 735 s | COc1cncc(C(=O)Nc2cc(F)ccc2F)c1 |
| 673 s | COCc1nc(NCc2ccc3c(c2)OCO3)ncc1C(=O)O |
| 1070 s | CSc1ccc(-c2nc3cnccn3c2Nc2cc(C)cc(C)c2)cc1 |
| 570 s | CCc1cccc(C)c1NC(=O)Cn1ncc2c(N3CCN(c4ccccn4)CC3)ncnc21 |
| 817 s | CCS(=O)(=O)N1CC(=O)N(c2cccc(F)c2)C(C)(C(=O)NC2CCCCC2)C1 (stereo unspecified) |
| 921 s | COc1ccc(OC)c(CCN2CC(=O)N(c3ccc(C)c(Cl)c3)[C@@H]3CS(=O)(=O)C[C@@H]32)c1 |
| 624 s | CSc1ccc(NC(=O)c2cn3c(n2)CCCC3)cc1 |
| 800 s | CNC(=O)c1cc(-c2cccc(OC)c2)nc2ccccc12 |
| 950 s | Cc1ccc(CNC(=O)Cn2c(=O)cc(-c3nc(C4CC4)no3)c3ccccc32)cc1 |
| 834 s | Cc1ccc(-n2nc(N3CCN(C(=O)Nc4cc(F)ccc4F)CC3)ccc2=O)cc1 |
| 1020 s | Cn1cc(S(=O)(=O)N2CCCCC2)cc1C(=O)Nc1cccc(F)c1 |
| 806 s | COCCN1C(=O)CCc2cc(NC(=O)Cc3ccc(Cl)cc3)ccc21 |
| 998 s | CCOc1ccc(C(=O)NC2(c3nc(-c4cccnc4)no3)CCCCC2)cc1OCC |
| 804 s | O=S(=O)(Nc1cccn2ncnc12)c1cccc(C(F)(F)F)c1 |
| 836 s | O=C(C1CCC1)N1CCc2sc(S(=O)(=O)NCc3ccc4c(c3)OCO4)cc2C1 |

| SMILES | RP-LC retention time |
| --- | --- |
| CC(C)C(=O)N1CCC2(CC1)NCc1ccccc1-n1ccnc12 | 574 s |
